In brackets after ≈: the same amount, converted by molar mass. Read-outs that look alike come from different tables or passages of the source.
Tests used:
[1] = tested on: non-replicating M. tuberculosis; test: microbe, parasite or virus in culture; type: cell-based, Mycobacterium tuberculosis; conditions: for MIC: Mycobacterium tuberculosis
[2] = tested on: HepG2 cells; type: cell-based
Method: Three lead compounds were identified in the first round of high throughput screening (700 compounds), which had minimal inhibitory concentrations (MIC) of 0.4-0.8 μg/mL after a six day exposure to drug (NRd6) in the model of non-replication at pH 5.0, and LD50's of 100 to >100 μg/mL against HepG2 cells (a 2 day exposure).
Furthermore, LD50 values were determined using a human hepatoma cell line (HepG2) using intracellular ATP levels as a measurement that correlated with cellular viability.

[3] = tested on: replicating M. tuberculosis; test: MIC under replication (R) conditions; type: cell-based, Mycobacterium tuberculosis; conditions: Mycobacterium tuberculosis
[4] = read-out: MIC NR at 0.01 Inoc. and 3 Day Exposure to Drug, 7 Day Outgrowth, Table 8, ranges from multiple assays
[5] = read-out: MIC NR at 0.01 Inoc. and 3 Day Exposure to Drug, 11 Day Outgrowth, Table 8, ranges from multiple assays
[6] = Table 8, ranges from multiple assays
[7] = 72 h, Table 9, 3 Day Exposure to Drug, read-out: MIC NR 0.01 Inoc.
[8] = 72 h, Table 9, 3 Day Exposure to Drug, read-out: MIC NR 0.1 Inoc.

Question: `C=CC1=C(C(=O)O)N2C(=O)[C@@H](NC(=O)/C(=N\O)c3csc(N)n3)[C@H]2SC1` [Compound 107] was tested. Which MIC [1, 4] did it give?
Answer: 50 µg/mL (≈ 126 µM)

Question: What about the MIC [1, 5] of the same compound?
Answer: 50 µg/mL (≈ 126 µM)

Question: And the “HepG2 Toxicity LD50” value ([2]; human, 2 day)?
Answer: >100 µg/mL

Question: `CCCOC(=O)C1=C(C)CS[C@@H]2[C@H](NC(=O)COc3ccc(Cl)cc3)C(=O)N12` [Compound 45] was tested. Which “MIC NR at 0.01 Inoc. and 3 Day Exposure to Drug, 7 Day Outgrowth” value (“MIC NR … 7 Day Outgrowth” for short) [1, 6] did it give?
Answer: 0.39 µg/mL (≈ 0.918 µM)

Question: What about the “MIC NR at 0.01 Inoc. and 3 Day Exposure to Drug, 11 Day Outgrowth” value (“MIC NR … 11 Day Outgrowth” for short) [1, 6] of the same compound?
Answer: 0.39 µg/mL (≈ 0.918 µM)

Question: And the “HepG2 Toxicity LD50” value ([2]; Table 8)?
Answer: 100 µg/mL

Question: For `CCCCOC(=O)C1=C(C)CS[C@@H]2[C@H](NC(=O)COc3ccccc3)C(=O)N12` [Compound 118], which MIC ([1]; 3,4-olefinic isomers, read-out: minimum inhibitory concentration against non-replicating M. tuberculosis) is on record?
Answer: 3.1 µg/mL (≈ 7.66 µM)

Question: What about the MIC ([3]; read-out: minimum inhibitory concentration against replicating M. tuberculosis) of the same compound?
Answer: 100 µg/mL (≈ 247 µM)

Question: For `CCCCOc1ccc(CCC(=O)N[C@@H]2C(=O)N3C(C(=O)O)=C(C)CS[C@H]23)cc1` [Compound 110], which MIC [1, 7] is on record?
Answer: 100 µg/mL (≈ 239 µM)

Question: And the MIC [1, 8]?
Answer: > 100 µg/mL

Question: And the MIC ([3]; Table 9, read-out: MIC R)?
Answer: 100 µg/mL (≈ 239 µM)

Question: What about the “HepG2 LD50” value ([2]; human, 2 day) of the same compound?
Answer: >100 µg/mL

Question: `CCCNC(=O)C1=C(C)CS[C@@H]2[C@H](NC(=O)CCc3ccc(OC)cc3)C(=O)N12` [Compound 117] was tested. Which MIC [1, 7] did it give?
Answer: 100 µg/mL (≈ 240 µM)

Question: And the MIC [1, 8]?
Answer: > 100 µg/mL

Question: And the MIC ([3]; Table 9, read-out: MIC R)?
Answer: > 100 µg/mL

Question: What about the “HepG2 LD50” value ([2]; human, 2 day) of the same compound?
Answer: >100 µg/mL

Question: With `CCOC(=O)C1=C(C)CS[C@@H]2[C@H](NC(=O)CCc3ccc(OC)cc3)C(=O)N12` [Compound 52] as the compound, how does the “MIC NR … 7 Day Outgrowth” value [1, 6] read?
Answer: 0.20 µg/mL (≈ 0.494 µM)

Question: And the “MIC NR … 11 Day Outgrowth” value [1, 6]?
Answer: 0.39 µg/mL (≈ 0.964 µM)

Question: And the “HepG2 Toxicity LD50” value ([2]; Table 8)?
Answer: >100 µg/mL

Question: What does the source list for `CCOC(=O)C1=C(C)CS[C@@H]2[C@H](NC(=O)CCc3ccc(Cl)cc3)C(=O)N12` [Compound 55]?
Answer: MIC NR at 0.01 Inoc. and 3 Day Exposure to Drug, 7 Day Outgrowth [1, 6]: 0.20 µg/mL (≈ 0.489 µM); MIC NR at 0.01 Inoc. and 3 Day Exposure to Drug, 11 Day Outgrowth [1, 6]: 0.39 µg/mL (≈ 0.954 µM); HepG2 Toxicity LD50 ([2]; Table 8): >100 µg/mL

Question: Which “MIC NR … 7 Day Outgrowth” value [1, 6] does the source give for `C#CCOC(=O)C1=C(C)CS[C@@H]2[C@H](NC(=O)COc3ccccc3)C(=O)N12` [Compound 82] here?
Answer: 1.56 µg/mL (≈ 4.04 µM)

Question: And the “MIC NR … 11 Day Outgrowth” value [1, 6]?
Answer: 3.13 µg/mL (≈ 8.1 µM)

Question: And the “HepG2 Toxicity LD50” value ([2]; Table 8)?
Answer: >100 µg/mL

Question: What does the source list for `CC1=C(C(=O)OCc2ccccc2)N2C(=O)[C@@H](NC(=O)COc3ccccc3)[C@H]2SC1` [Compound 104]?
Answer: MIC [1, 4]: 1.56 µg/mL (≈ 3.56 µM); MIC [1, 5]: 3.13 µg/mL (≈ 7.14 µM); HepG2 Toxicity LD50 ([2]; human, 2 day): >100 µg/mL

Question: What does the source list for `CCCOC(=O)C1=C(C)CS[C@@H]2[C@H](NC(=O)CCc3ccc(Cl)cc3)C(=O)N12` [Compound 54]?
Answer: MIC NR at 0.01 Inoc. and 3 Day Exposure to Drug, 7 Day Outgrowth [1, 6]: 0.20 µg/mL (≈ 0.473 µM); MIC NR at 0.01 Inoc. and 3 Day Exposure to Drug, 11 Day Outgrowth [1, 6]: 0.39 µg/mL (≈ 0.922 µM); HepG2 Toxicity LD50 ([2]; Table 8): >100 µg/mL

Question: How did the MIC [1, 7] turn out when `COc1ccc(CCC(=O)N[C@@H]2C(=O)N3C(C(=O)O)=C(C)CS[C@H]23)cc1` [Compound 108] was run?
Answer: > 100 µg/mL

Question: What about the MIC [1, 8] of the same compound?
Answer: > 100 µg/mL

Question: And the MIC ([3]; Table 9, read-out: MIC R)?
Answer: > 100 µg/mL

Question: What about the “HepG2 LD50” value ([2]; human, 2 day) of the same compound?
Answer: >100 µg/mL

Question: Which MIC [1, 4] does the source give for `CC1=C(C(=O)OCc2ccccc2)N2C(=O)[C@@H](NC(=O)CCc3ccc(Cl)cc3)[C@H]2SC1` [Compound 100] here?
Answer: 0.39 µg/mL (≈ 0.828 µM)

Question: What about the MIC [1, 5] of the same compound?
Answer: 0.78 µg/mL (≈ 1.66 µM)

Question: And the “HepG2 Toxicity LD50” value ([2]; human, 2 day)?
Answer: 50 µg/mL

Question: `CCCCOC(=O)C1C(C)=CS[C@@H]2[C@H](NC(=O)COc3ccccc3)C(=O)N12` (some centres unmarked) [Compound 98] was tested. Which MIC [1, 4] did it give?
Answer: 0.39 µg/mL (≈ 0.964 µM)

Question: What about the MIC [1, 5] of the same compound?
Answer: 0.39 µg/mL (≈ 0.964 µM)

Question: What about the “HepG2 Toxicity LD50” value ([2]; human, 2 day) of the same compound?
Answer: 100 µg/mL

Question: Which results are given for `CCOC(=O)C1=C(C)CS[C@@H]2[C@H](NC(=O)COc3ccc(Cl)cc3)C(=O)N12` [Compound 46]?
Answer: MIC NR at 0.01 Inoc. and 3 Day Exposure to Drug, 7 Day Outgrowth [1, 6]: 0.39 µg/mL (≈ 0.949 µM); MIC NR at 0.01 Inoc. and 3 Day Exposure to Drug, 11 Day Outgrowth [1, 6]: 078 µg/mL (≈ 190 µM); HepG2 Toxicity LD50 ([2]; Table 8): 50 µg/mL
